Experimental data taken from PubChem BioAssay (NCI).
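Compound exposure: 48 hours, 5 concentrations, 96-well plates. At the GI50, growth is halved. At the TGI there is no net growth.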

Experiments:
Assay in all cases: NCI-60 cell line screen, 48 h
[1] = tested on: T-47D breast
[2] = tested on: NCI-H522 lung
[3] = tested on: RXF 393 renal
[4] = tested on: BT-549 breast
[5] = tested on: SN12C renal
[6] = tested on: SF-539 CNS
[7] = tested on: UACC-62 melanoma
[8] = tested on: TK-10 renal
[9] = tested on: A549 NSCLC
[10] = tested on: MCF7 breast
[11] = tested on: MDA-MB-231 breast
[12] = tested on: HOP-62 NSCLC
[13] = tested on: HS 578T breast
[14] = tested on: HCT-116 colon
[15] = tested on: RPMI-8226 leukemia
[16] = tested on: SNB-19 CNS
[17] = tested on: SNB-75 CNS
[18] = tested on: SW-620 colon
[19] = tested on: OVCAR-5 ovarian
[20] = tested on: CAKI-1 renal
[21] = tested on: HL-60(TB) leukemia
[22] = tested on: SR leukemia
[23] = tested on: NCI/ADR-RES ovarian
[24] = tested on: OVCAR-8 ovarian
[25] = tested on: SF-295 CNS
[26] = tested on: SK-MEL-5 melanoma
[27] = tested on: SK-MEL-2 melanoma
[28] = tested on: NCI-H23 lung
[29] = tested on: MOLT-4 leukemia
[30] = tested on: M14 melanoma
[31] = tested on: CCRF-CEM leukemia
[32] = tested on: K-562 leukemia
[33] = tested on: NCI-H460 lung
[34] = tested on: U251 CNS
[35] = tested on: DU-145 prostate
[36] = tested on: ACHN renal
[37] = tested on: 786-0 renal
[38] = tested on: OVCAR-4 ovarian
[39] = tested on: UACC-257 melanoma
[40] = tested on: SF-268 CNS
[41] = tested on: LOX IMVI melanoma
[42] = tested on: UO-31 renal
[43] = tested on: A498 renal
[44] = tested on: EKVX NSCLC
[45] = tested on: MDA-MB-435
[46] = tested on: NCI-H226 lung
[47] = tested on: SK-OV-3 ovarian
[48] = tested on: MALME-3M melanoma
[49] = tested on: HT29 colon
[50] = tested on: HCC-2998 colon
[51] = tested on: IGROV1 ovarian
[52] = tested on: COLO 205 colon
[53] = tested on: SK-MEL-28 melanoma
[54] = tested on: HCT-15 colon
[55] = tested on: KM12 colon
[56] = tested on: HOP-92 NSCLC
[57] = tested on: PC-3 prostate
[58] = tested on: OVCAR-3 ovarian

## OCCCNc1nccc(-c2c(-c3ccc(F)cc3)nn3cc(C(F)(F)F)ccc23)n1
[1]
  GI50: 8.42 µM
  TGI: > 23.4 µM
[2]
  GI50: 16.7 µM
  TGI: > 25 µM
[3]
  GI50: 5.86 µM
  TGI: 19.1 µM
[4]
  GI50: > 25 µM
  TGI: > 25 µM
[5]
  GI50: 13.3 µM
  TGI: > 25 µM
[6]
  GI50: > 25 µM
  TGI: > 25 µM
[7]
  GI50: 15.1 µM
  TGI: > 25 µM
[8]
  GI50: 15.9 µM
  TGI: > 25 µM
[9]
  GI50: 17.3 µM
  TGI: > 25 µM
[10]
  GI50: 15.1 µM
  TGI: > 25 µM
[11]
  GI50: 24.6 µM
  TGI: > 25 µM
[12]
  GI50: > 23.4 µM
  TGI: > 25 µM
[13]
  GI50: 19.2 µM
  TGI: > 25 µM
[14]
  GI50: 11.7 µM
  TGI: > 25 µM
[15]
  GI50: 22.9 µM
  TGI: > 25 µM
[16]
  GI50: > 25 µM
  TGI: > 25 µM
[17]
  GI50: > 13.4 µM
  TGI: > 25 µM
[18]
  GI50: > 25 µM
  TGI: > 25 µM
[19]
  GI50: > 22.9 µM
  TGI: > 25 µM
[20]
  GI50: > 21.7 µM
  TGI: > 25 µM
[21]
  GI50: > 19.6 µM
  TGI: > 25 µM
[22]
  GI50: > 25 µM
  TGI: > 25 µM
[23]
  GI50: 8.25 µM
  TGI: > 25 µM
[24]
  GI50: 16.9 µM
  TGI: > 25 µM
[25]
  GI50: 10.3 µM
  TGI: > 25 µM
[26]
  GI50: 8.4 µM
  TGI: > 25 µM
[27]
  GI50: > 23.1 µM
  TGI: > 25 µM
[28]
  GI50: > 25 µM
  TGI: > 25 µM
[29]
  GI50: 14.3 µM
  TGI: > 25 µM
[30]
  GI50: 15.4 µM
  TGI: > 25 µM
[31]
  GI50: 11.4 µM
  TGI: > 25 µM
[32]
  GI50: 10.4 µM
  TGI: > 25 µM
[33]
  GI50: 9.12 µM
  TGI: > 25 µM
[34]
  GI50: 19.3 µM
  TGI: > 25 µM
[35]
  GI50: 12.9 µM
  TGI: > 25 µM
[36]
  GI50: 9.23 µM
  TGI: > 25 µM
[37]
  GI50: 10.2 µM
  TGI: > 25 µM
[38]
  GI50: 10.8 µM
  TGI: > 25 µM
[39]
  GI50: > 23.4 µM
  TGI: > 25 µM
[40]
  GI50: 16.3 µM
  TGI: > 25 µM
[41]
  GI50: 15.3 µM
  TGI: > 25 µM
[42]
  GI50: 7.07 µM
  TGI: > 25 µM
[43]
  GI50: 12.8 µM
  TGI: > 25 µM
[44]
  GI50: 20.5 µM
  TGI: > 25 µM
[45]
  GI50: 10.1 µM
  TGI: > 25 µM
[46]
  GI50: 9.49 µM
  TGI: > 25 µM
[47]
  GI50: 13 µM
  TGI: > 25 µM
[48]
  GI50: 14.8 µM
  TGI: > 25 µM
[49]
  GI50: 7.73 µM
  TGI: > 25 µM
[50]
  GI50: > 23.4 µM
  TGI: > 25 µM
[51]
  GI50: 12 µM
  TGI: > 25 µM
[52]
  GI50: 12.5 µM
  TGI: > 25 µM
[53]
  GI50: 15.9 µM
  TGI: > 25 µM
[54]
  GI50: 8.1 µM
  TGI: > 25 µM
[55]
  GI50: 11.1 µM
  TGI: > 25 µM
[56]
  GI50: 8.1 µM
  TGI: > 25 µM
[57]
  GI50: 15.1 µM
  TGI: > 25 µM
[58]
  GI50: 15.1 µM
  TGI: > 25 µM

## CCCCCOc1ccc(/C=N/Nc2cc(C)nc3ccc(Br)cc23)cc1
[1]
  GI50: 1.81 µM
  TGI: 3.89 µM
[2]
  GI50: 2.06 µM
  TGI: 4.71 µM
[3]
  GI50: 1.67 µM
  TGI: 3.19 µM
[4]
  GI50: 1.77 µM
  TGI: 3.43 µM
[5]
  GI50: 1.72 µM
  TGI: 3.27 µM
[6]
  GI50: 1.76 µM
  TGI: 3.23 µM
[7]
  GI50: 1.66 µM
  TGI: 3.13 µM
[8]
  GI50: 1.87 µM
  TGI: 3.42 µM
[9]
  GI50: 1.9 µM
  TGI: 3.69 µM
[10]
  GI50: 1.71 µM
  TGI: 3.68 µM
[11]
  GI50: 1.77 µM
  TGI: 3.41 µM
[12]
  GI50: 1.73 µM
  TGI: 3.37 µM
[13]
  GI50: 2.33 µM
  TGI: 5.64 µM
[14]
  GI50: 1.78 µM
  TGI: 3.36 µM
[15]
  GI50: 1.91 µM
  TGI: 4.17 µM
[16]
  GI50: 1.96 µM
  TGI: 3.71 µM
[17]
  GI50: 1.77 µM
  TGI: 3.39 µM
[18]
  GI50: 1.92 µM
  TGI: 3.63 µM
[19]
  GI50: 1.83 µM
  TGI: 3.28 µM
[20]
  GI50: 1.63 µM
  TGI: 2.99 µM
[21]
  GI50: 1.91 µM
  TGI: 3.78 µM
[22]
  GI50: 0.448 µM
  TGI: 2.15 µM
[23]
  GI50: 1.83 µM
  TGI: 4.19 µM
[24]
  GI50: 2.13 µM
  TGI: 4.73 µM
[25]
  GI50: 1.81 µM
  TGI: 3.5 µM
[26]
  GI50: 1.74 µM
  TGI: 3.16 µM
[27]
  GI50: 1.98 µM
  TGI: 3.91 µM
[28]
  GI50: 1.85 µM
  TGI: 3.82 µM
[29]
  GI50: 1.73 µM
  TGI: 3.58 µM
[30]
  GI50: 1.88 µM
  TGI: 3.53 µM
[31]
  GI50: 1.54 µM
  TGI: 3.51 µM
[32]
  GI50: 1.24 µM
  TGI: 2.83 µM
[33]
  GI50: 1.94 µM
  TGI: 3.7 µM
[34]
  GI50: 1.82 µM
  TGI: 3.39 µM
[35]
  GI50: 1.81 µM
  TGI: 3.25 µM
[36]
  GI50: 1.77 µM
  TGI: 3.17 µM
[37]
  GI50: 1.8 µM
  TGI: 3.43 µM
[38]
  GI50: 1.76 µM
  TGI: 3.27 µM
[39]
  GI50: 1.88 µM
  TGI: 3.6 µM
[40]
  GI50: 1.97 µM
  TGI: 3.73 µM
[41]
  GI50: 1.86 µM
  TGI: 3.64 µM
[42]
  GI50: 1.57 µM
  TGI: 3 µM
[43]
  GI50: 1.83 µM
  TGI: 3.32 µM
[44]
  GI50: 1.63 µM
  TGI: 3.11 µM
[45]
  GI50: 1.76 µM
  TGI: 3.18 µM
[46]
  GI50: 1.85 µM
  TGI: 4.32 µM
[47]
  GI50: 1.75 µM
  TGI: 3.18 µM
[48]
  GI50: 1.88 µM
  TGI: 3.46 µM
[49]
  GI50: 1.94 µM
  TGI: 4.24 µM
[50]
  GI50: 2.07 µM
  TGI: 3.8 µM
[51]
  GI50: 1.72 µM
  TGI: 3.37 µM
[52]
  GI50: 1.96 µM
  TGI: 3.72 µM
[53]
  GI50: 1.65 µM
  TGI: 3.1 µM
[54]
  GI50: 1.57 µM
  TGI: 3.13 µM
[55]
  GI50: 1.74 µM
  TGI: 3.19 µM
[56]
  GI50: 1.36 µM
  TGI: 2.88 µM
[57]
  GI50: 1.55 µM
  TGI: 3.02 µM
[58]
  GI50: 1.92 µM
  TGI: 3.37 µM
